Consider 10 molecules from ChEMBL document CHEMBL3045264, “Synthesis and antimicrobial activity of 5-((3-aryl-1-phenyl-1H-pyrazol-4-yl)methylene)thiazolidine-2,4-diones” (2012).

Values after ≈ are worked out from the molar mass of the structure shown. Active and inactive are the calls of the source. The calls are words filed in the database; no cut-off is given here.

One assay relates to Aspergillus flavus. The assay is described as follows: Growth inhibition of Aspergillus flavus at 4 mg/ml after 7 days by poisoned food technique. The assay is classed as functional. As to conditions: 168 h, read-out: GI.
The subject of assay [1] is Bacillus subtilis. The assay is described as follows: Antibacterial activity against Bacillus subtilis MTCC 121 after 24 hr by macro dilution tube method. The assay is classed as functional. The conditions noted are these: MTCC 121, 24 h.
For another assay, the system named is Escherichia coli. The assay is described as follows: Antibacterial activity against Escherichia coli MTCC 1652 at 4 mg/ml after 24 hr by agar well diffusion method. It counts as functional, organism-based. (Agar diffusion results depend on both activity and mobility in agar.)
Assay [2] deals with Pseudomonas aeruginosa. As to conditions: MTCC 741, 4 mg/ml.
Description: (§1) Antibacterial activity against Pseudomonas aeruginosa MTCC 741 at 4 mg/ml after 24 hr by agar well diffusion method
The next assay relates to Aspergillus niger. The assay is described as follows: Growth inhibition of Aspergillus niger at 4 mg/ml after 7 days by poisoned food technique. The assay is classed as functional. As to conditions: 168 h, read-out: GI.
In assay [3] the test system is Staphylococcus aureus. The assay is described as follows: Antibacterial activity against Staphylococcus aureus MTCC 96 at 4 mg/ml after 24 hr by agar well diffusion method. It counts as functional. As to conditions: MTCC 96, 24 h, read-out: DIZ.
Assay [4] has as its system Bacillus subtilis. The assay is described as follows: Antibacterial activity against Bacillus subtilis MTCC 121 at 4 mg/ml after 24 hr by agar well diffusion method. It counts as functional. As to conditions: MTCC 121, 24 h, read-out: DIZ.
Assay [5] relates to Staphylococcus aureus. The assay is described as follows: Antibacterial activity against Staphylococcus aureus MTCC 96 after 24 hr by macro dilution tube method. As to conditions: MTCC 96, 24 h. It counts as functional.
The subject of assay [6] is Pseudomonas aeruginosa. The assay is described as follows: microbe, parasite or virus in culture. The conditions noted are these: MTCC 741, 24 h, read-out: DIZ.
Description: as §1

The MIC is the lowest concentration that inhibits growth of the organism. For `O=C1NC(=O)/C(=C/c2cn(-c3ccccc3)nc2-c2ccc(F)cc2)S1`, the inhibition of growth at 4000 µg/mL amounted to 78.8% in the assay on Aspergillus flavus and 82.5% with Aspergillus niger. Moreover, the MIC against Bacillus subtilis [1] and in the assay on Staphylococcus aureus [5] was 32 mg/L (≈ 87.6 µM) each time. The “diameter of the inhibition zone (DIZ)” value in the assay on Escherichia coli is “inactive”. The DIZ result in the assay with Pseudomonas aeruginosa [2] is “inactive”. Further, the figures for the zone of inhibition at 4000 µg/mL in the assay with Staphylococcus aureus [3] and in the assay with Bacillus subtilis [4] were 20.6 mm and 21.6 mm, respectively.
Consider `O=C1NC(=O)/C(=C/c2cn(-c3ccccc3)nc2-c2ccc(Cl)cc2)S1`, for which the inhibition of growth at 4000 µg/mL amounted to 60% in the assay with Aspergillus flavus and 65.5% with Aspergillus niger. Besides, the MIC against Bacillus subtilis [1] and in the assay with Staphylococcus aureus [5] was 128 mg/L (≈ 335 µM) in each case. Besides, in the assay with Escherichia coli, the “diameter of the inhibition zone (DIZ)” value is “inactive”. Besides, the DIZ entry in the assay with Pseudomonas aeruginosa [2] is “inactive”. The zone of inhibition at 4000 µg/mL in the assay with Staphylococcus aureus [3] was determined as 14.3 mm; in the assay with Bacillus subtilis [4] it was 15 mm.
For the molecule `COc1ccc(-c2nn(-c3ccccc3)cc2/C=C2\SC(=O)NC2=O)cc1`, the inhibition of growth at 4000 µg/mL in the assay with Aspergillus flavus was found to be 57.7%; in the assay on Aspergillus niger, 60%. Moreover, the minimum inhibitory concentration (MIC) with Bacillus subtilis [1] and against Staphylococcus aureus [5] was 128 mg/L (≈ 339 µM) each time. Also, the “diameter of the inhibition zone (DIZ)” value with Escherichia coli was “inactive”. Besides, the DIZ entry with Pseudomonas aeruginosa [2] is “inactive”. The zone of inhibition at 4000 µg/mL with Staphylococcus aureus [3] is 13.6 mm; with Bacillus subtilis [4] it was 14.3 mm.
With `O=C1NC(=O)/C(=C/c2cn(-c3ccccc3)nc2-c2ccc(O)cc2)S1`, the inhibition of growth at 4000 µg/mL amounted to 54.4% with Aspergillus flavus and 55.5% in the assay on Aspergillus niger. Further, the MIC against Bacillus subtilis [1] and with Staphylococcus aureus [5] was 128 mg/L (≈ 352 µM) each time. Besides, the “diameter of the inhibition zone (DIZ)” value with Escherichia coli was “inactive”. Besides, the DIZ entry in the assay with Pseudomonas aeruginosa [2] was “inactive”. In addition, the zone of inhibition at 4000 µg/mL was 15 mm with Staphylococcus aureus [3] and 14.6 mm in the assay with Bacillus subtilis [4].
With `Cc1ccc(-c2nn(-c3ccccc3)cc2/C=C2\SC(=O)NC2=O)cc1`, the inhibition of growth at 4000 µg/mL stood at 65.5% in the assay with Aspergillus flavus and 68.8% in the assay on Aspergillus niger. Also, the MIC against Bacillus subtilis [1] and against Staphylococcus aureus [5] was 128 mg/L (≈ 354 µM) in each case. Further, the “diameter of the inhibition zone (DIZ)” value with Escherichia coli is “inactive”. For the same molecule, in the assay on Pseudomonas aeruginosa [2], the DIZ result was “inactive”. The zone of inhibition at 4000 µg/mL in the assay on Staphylococcus aureus [3] came to 16.3 mm; with Bacillus subtilis [4] it was 15.6 mm.
In the case of `O=C1NC(=O)/C(=C/c2cn(-c3ccccc3)nc2-c2ccc(Br)cc2)S1`, the inhibition of growth at 4000 µg/mL in the assay with Aspergillus flavus was found to be 62.5%; in the assay with Aspergillus niger, 61.1%. Besides, the MIC against Bacillus subtilis [1] was found to be 32 mg/L (≈ 75.1 µM); against Staphylococcus aureus [5], 64 mg/L (≈ 150 µM). Further, the “diameter of the inhibition zone (DIZ)” value in the assay with Escherichia coli was “inactive”. Besides, the DIZ result in the assay on Pseudomonas aeruginosa [2] was “inactive”. Also, the results for the zone of inhibition at 4000 µg/mL in the assay with Staphylococcus aureus [3] and with Bacillus subtilis [4] were 18.6 mm and 21.6 mm, respectively.
On to `O=C(O)c1cn(C2CC2)c2cc(N3CCNCC3)c(F)cc2c1=O` [CIPROFLOXACIN], for which the results for the zone of inhibition at 4000 µg/mL with Pseudomonas aeruginosa [6], in the assay with Staphylococcus aureus [3] and in the assay on Bacillus subtilis [4] were 22 mm, 26 mm and 24 mm, respectively. Moreover, the minimal inhibitory concentration (MIC) against Bacillus subtilis [1] and in the assay on Staphylococcus aureus [5] was 5 mg/L (≈ 15.1 µM) throughout.
Regarding `O=C1NC(=O)/C(=C/c2cn(-c3ccccc3)nc2-c2ccc([N+](=O)[O-])cc2)S1`, the inhibition of growth at 4000 µg/mL worked out at 63.3% in the assay on Aspergillus flavus and 61.1% with Aspergillus niger. Further, the MIC in the assay on Bacillus subtilis [1] turned out to be 32 mg/L (≈ 81.6 µM); in the assay on Staphylococcus aureus [5], 16 mg/L (≈ 40.8 µM). Moreover, in the assay with Escherichia coli, the “diameter of the inhibition zone (DIZ)” value was “inactive”. Moreover, the DIZ result in the assay on Pseudomonas aeruginosa [2] is “inactive”. The zone of inhibition at 4000 µg/mL stood at 23.6 mm in the assay with Staphylococcus aureus [3] and 21.3 mm in the assay with Bacillus subtilis [4].
On to `O=C1NC(=O)/C(=C/c2cn(-c3ccccc3)nc2-c2ccccc2)S1`, for which the inhibition of growth at 4000 µg/mL in the assay on Aspergillus flavus was found to be 60%; in the assay on Aspergillus niger it was 62.5%. In addition, the minimal inhibitory concentration (MIC) in the assay on Bacillus subtilis [1] was determined as 128 mg/L (≈ 368 µM); against Staphylococcus aureus [5], 32 mg/L (≈ 92.1 µM). In the assay with Escherichia coli, the “diameter of the inhibition zone (DIZ)” value was “inactive”. In addition, the DIZ entry in the assay with Pseudomonas aeruginosa [2] was “inactive”. The values for the zone of inhibition at 4000 µg/mL with Staphylococcus aureus [3] and in the assay with Bacillus subtilis [4] were 20.3 mm and 16 mm, respectively.
As to `OC(Cn1cncn1)(Cn1cncn1)c1ccc(F)cc1F` [FLUCONAZOLE], the inhibition of growth at 4000 µg/mL in the assay on Aspergillus flavus is 77.7%; in the assay on Aspergillus niger, 81.1%.
